Data on three compounds can be found in US20190381004A1, “PHOTOPROTECTIVE COMPOSITIONS CONTAINING MALASSEZIA-DERIVED COMPOUNDS AND/OR CHEMICAL ANALOGS THEREOF” (priority 2018, published 2019).

Like-named read-outs stand apart in the source and are kept apart here.

For data set [1], the target named is T1, arylhydrocarbon receptor (AhR) (Homo sapiens, UniProt P35869).
T1 sequence (P35869 11-848): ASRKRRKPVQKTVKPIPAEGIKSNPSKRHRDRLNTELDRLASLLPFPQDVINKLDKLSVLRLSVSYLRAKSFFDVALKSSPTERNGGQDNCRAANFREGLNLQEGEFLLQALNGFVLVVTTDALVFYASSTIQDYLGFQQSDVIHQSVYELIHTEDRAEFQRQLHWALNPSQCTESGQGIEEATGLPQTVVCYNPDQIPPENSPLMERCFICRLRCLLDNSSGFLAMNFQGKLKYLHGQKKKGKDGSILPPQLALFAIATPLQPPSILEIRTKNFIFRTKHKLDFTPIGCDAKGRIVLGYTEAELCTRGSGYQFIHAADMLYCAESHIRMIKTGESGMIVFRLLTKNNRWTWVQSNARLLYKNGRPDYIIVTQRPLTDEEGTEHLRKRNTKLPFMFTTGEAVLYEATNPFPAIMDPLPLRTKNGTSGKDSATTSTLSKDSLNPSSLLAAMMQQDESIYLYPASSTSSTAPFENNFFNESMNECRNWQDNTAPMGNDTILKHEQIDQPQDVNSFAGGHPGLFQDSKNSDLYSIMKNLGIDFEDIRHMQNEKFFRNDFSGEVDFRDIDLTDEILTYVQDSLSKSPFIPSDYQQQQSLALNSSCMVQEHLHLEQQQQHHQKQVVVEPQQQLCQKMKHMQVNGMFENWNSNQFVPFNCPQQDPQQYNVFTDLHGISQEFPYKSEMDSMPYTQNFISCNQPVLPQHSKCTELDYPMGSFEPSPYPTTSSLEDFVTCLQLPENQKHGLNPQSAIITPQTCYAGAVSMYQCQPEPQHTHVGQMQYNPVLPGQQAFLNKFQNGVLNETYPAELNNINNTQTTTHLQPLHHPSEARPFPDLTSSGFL
The conditions noted are these: cited from earlier work.

The test system of another data set is UV-induced erythema. The data set can be described thus: In vivo photoprotection proof of concept: UVB irradiation of treated skin sites, erythema assessment. Set-up: species or system human. The conditions noted are these: one Skin Type IV subject. From the text: The Malassezin 1% formulation used in this study contained the following ingredients: Water (aqua)—65.939%; Dimethyl isosorbide—20.000%; Olive Oil Glycereth-8 Esters—3.000%; Glycerin—2.991%; Coconut Alkanes—2.700%; Hydroxyethyl Acrylate/Sodium Acryloyldimethyl Taurate Copolymer—1.700%; Malassezin—1.000%; Pentylene Glycol—1.000%; Phenoxyethanol—0.640%; Coco-Caprylate/Caprate—0.300%; Caprylyl Glycol—0.200%; Chlorphenesin—0.160%; Sorbitan Isostearate—0.140%; Tocopherol—0.100%; Polysorbate 60-0.080%; and Disodium EDTA—0.050%.
A Skin Type IV […] was included in this Proof of Concept study.
A template of 6 squares was placed on the lower left back (1.5 cm×1.5 cm) of the test subject.
Twenty-four hours after irradiation, the subject returned for MED assessment.
A second right lower square was treated twice daily from day 4 to day 7, and a third medial square for one application on day 7. The product vehicle was applied for 7 days twice daily on the left back. The subject returned to the research center for irradiation on day 7. Each test site was irradiated with 120 mJ of UVB exposure. The subject returned in 24 hours for assessment of phototoxicity/photoprotection.
The subject continued the experiment, receiving Malassezin 1% for a total of 14 days. […]

The conditions of data set [2]: cited from earlier work; for sun protection factor (SPF): cream.
Data set [3] has as its system Candida albicans and staphylococci. The settings on record: cited from earlier work.

Turning to `O=C1Nc2ccccc2/C1=C1/Nc2ccccc2C1=O` [Indirubin], the AhR agonist activity entry in data set [1] is “known agonist”.

On to `O=Cc1c(Cc2c[nH]c3ccccc23)[nH]c2ccccc12` [Malassezin, 2-(1H-indol-3-ylmethyl)-1H-indole-3-carbaldehyde], for which the “UV-protective properties (conclusion of study)” value with UV-induced erythema was “UV-protective properties”. Moreover, in data set [1], the AhR agonist activity result was “known agonist”.

For the compound `O=C(c1c[nH]c2ccccc12)c1nccc2c1[nH]c1ccccc12` [Pityriacitrin], the “sun protection factor (SPF)” value in data set [2] (pityriacitrin concentration 1.25%) is 1.4; in data set [2] (pityriacitrin concentration 2.5%) it was 1.5; in data set [2] (pityriacitrin concentration 5%) it was 1.7. Moreover, the “UV protective effect overall” value in data set [2] (in vitro and in vivo test methods in humans) is “very weak”. Further, in data set [3] (Candida albicans and staphylococci), the “UV-protective effect on microflora” value was “UV-protective effect”. Further, the toxicity to microflora entry in data set [3] (ranges tested) is listed as “no toxicity”.
